Experimental data from publication PMC5425475 (Frontiers in Systems Neuroscience, 2017).
Where “and” joins values, the source holds several entries; their conditions need not be identical. Equal values may be shown once. Entries after “also recorded” stand apart in the source; their conditions may differ. Read-outs that look alike come from different tables or passages of the source.

Key:
Dm5-HT2B [1] = biological target: T1, Dm5-HT2B (Drosophila melanogaster, UniProt Q8INQ6); test: Ca2+ fluorimetry (Fluo-4), agonist activation of Dm5-HT2B expressed in HEK 293 cells; format: cell-based; details: for change in Ca2+-dependent Fluo-4 fluorescence: biogenic amines 1 μM each
T1 sequence (Q8INQ6 entry or part of it): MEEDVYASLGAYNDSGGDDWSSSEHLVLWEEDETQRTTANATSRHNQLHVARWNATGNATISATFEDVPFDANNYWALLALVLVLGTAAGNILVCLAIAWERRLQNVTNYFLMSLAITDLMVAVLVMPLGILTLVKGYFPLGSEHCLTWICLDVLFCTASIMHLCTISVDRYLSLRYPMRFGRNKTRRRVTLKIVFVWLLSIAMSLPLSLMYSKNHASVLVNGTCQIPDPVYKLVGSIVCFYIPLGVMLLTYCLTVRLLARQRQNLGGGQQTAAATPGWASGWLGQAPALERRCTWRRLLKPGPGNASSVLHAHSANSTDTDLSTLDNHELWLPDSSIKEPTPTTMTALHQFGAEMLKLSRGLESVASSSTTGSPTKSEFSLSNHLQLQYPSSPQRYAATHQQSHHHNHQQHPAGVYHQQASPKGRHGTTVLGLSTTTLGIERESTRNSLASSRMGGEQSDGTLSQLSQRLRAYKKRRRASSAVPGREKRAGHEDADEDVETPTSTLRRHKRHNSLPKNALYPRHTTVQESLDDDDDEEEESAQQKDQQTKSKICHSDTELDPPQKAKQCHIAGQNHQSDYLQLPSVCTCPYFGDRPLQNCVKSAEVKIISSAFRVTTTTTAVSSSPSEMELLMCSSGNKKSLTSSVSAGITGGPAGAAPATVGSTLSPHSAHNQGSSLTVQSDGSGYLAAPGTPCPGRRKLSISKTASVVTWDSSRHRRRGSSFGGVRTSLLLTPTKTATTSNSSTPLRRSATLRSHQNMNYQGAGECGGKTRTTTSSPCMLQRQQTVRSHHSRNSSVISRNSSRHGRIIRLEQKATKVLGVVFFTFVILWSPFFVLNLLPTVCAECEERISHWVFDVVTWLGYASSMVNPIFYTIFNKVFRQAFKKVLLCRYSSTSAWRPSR
Method: Stably transfected cells were selected in the presence of the antibiotic G418 (0.8 mg/ml). Isolated foci were propagated and analyzed for the expression of Dm5-HT2B-HA receptor either by immunocytochemistry, Western blotting or by functional Ca^2+ imaging upon receptor activation.
The ability of the Dm5-HT2B-HA receptor (hereafter referred to as Dm5-HT2B) to activate Gq proteins was assessed by monitoring changes in [Ca^2+]i with the Ca^2+-sensitive fluorescent dye Fluo-4 (Invitrogen). Non-transfected HEK 293 cells and cells expressing Dm5-HT2B were grown in minimal essential medium (MEM + GlutaMAX^TMI (Gibco/ThermoFisher Scientific, Darmstadt, Germany) containing 2% (w/v) Utroser^TM G (Pall, Dreieich, Germany), 1 × non-essential amino acids and 1 × antibiotics/antimycotics) in 96-well plates to a density of ∼3 × 10^4 cells per well. In this format, each vertical row (=8 wells) of the 96-well plate is incubated with the same ligand concentration. […] Plates were transferred into a fluorescence reader (FLUOstar Galaxy/Optima; BMG Labtech, Offenburg, Germany) to monitor Fluo-4 fluorescence. […] Various concentrations of biogenic amines and synthetic receptor ligands were added, once Fluo-4 fluorescence had reached a stable value in each well. The changes in Fluo-4 fluorescence were recorded automatically. Concentration-response curves for putative agonists/antagonists were established in at least two independent experiments with octuplicate determinations (s.a.) per data point.

Am5-HT2A = system: Am5-HT2A; parameters: method as in Thamm et al., 2013; details: ref Thamm et al., 2013, cited from earlier work; for EC50: Am5-HT2A in HEK 293 cells
Am5-HT2B = system: Am5-HT2B; parameters: method as in Thamm et al., 2013; details: ref Thamm et al., 2013, cited from earlier work; for EC50: Am5-HT2B in HEK 293 cells; for Ca2+-dependent fluorescence blocked to: residual signal
Cv5-HT2A = system: Cv5-HT2A; parameters: method as in Röser et al., 2012; details: ref Röser et al., 2012, cited from earlier work; for EC50: Cv5-HT2A in HEK 293 cells
Rp5-HT2B = system: Rp5-HT2B; parameters: method as in Paluzzi et al., 2015; details: ref Paluzzi et al., 2015, cited from earlier work; for receptor activity reduced by: Rp5-HT2B, highest of three concentrations tested (10^-7, 10^-6, 10^-5 M)
Dm5-HT2B [2] = biological target: T1, Dm5-HT2B; test: Ca2+ fluorimetry (Fluo-4), antagonists on serotonin-stimulated Dm5-HT2B-expressing HEK 293 cells; format: cell-based; details: for effect on serotonin-stimulated Dm5-HT2B-expressing cells: 10^-9 M to 10^-4 M antagonist on 10^-7 M serotonin; for Maximal inhibition: relative efficacy, signal with 10^-7 M serotonin = 100%
Method: (§1) The ability of the Dm5-HT2B-HA receptor (hereafter referred to as Dm5-HT2B) to activate Gq proteins was assessed by monitoring changes in [Ca^2+]i with the Ca^2+-sensitive fluorescent dye Fluo-4 (Invitrogen). Non-transfected HEK 293 cells and cells expressing Dm5-HT2B were grown in minimal essential medium (MEM + GlutaMAX^TMI (Gibco/ThermoFisher Scientific, Darmstadt, Germany) containing 2% (w/v) Utroser^TM G (Pall, Dreieich, Germany), 1 × non-essential amino acids and 1 × antibiotics/antimycotics) in 96-well plates to a density of ∼3 × 10^4 cells per well. In this format, each vertical row (=8 wells) of the 96-well plate is incubated with the same ligand concentration. Cells were loaded at room temperature with Fluo-4 as described earlier ([Thamm et al., 2013]; [Blankenburg et al., 2015]) in extracellular solution [ES = in mM: 120 NaCl, 5 KCl, 2 MgCl2, 2 CaCl2, 10 HEPES, 10 Glucose, pH 7.4 (NaOH)]. Plates were transferred into a fluorescence reader (FLUOstar Galaxy/Optima; BMG Labtech, Offenburg, Germany) to monitor Fluo-4 fluorescence. The excitation wavelength was 485 nm, and fluorescence emission was detected at 520 nm. Various concentrations of biogenic amines and synthetic receptor ligands were added, once Fluo-4 fluorescence had reached a stable value in each well. The changes in Fluo-4 fluorescence were recorded automatically. Concentration-response curves for putative agonists/antagonists were established in at least two independent experiments with octuplicate determinations (s.a.) per data point.
Next, we examined the ability of potential receptor antagonists for impairing Dm5-HT2B activity.

Dm5-HT2B [3] = biological target: T1, Dm5-HT2B; parameters: method as in Gasque et al. (2013); details: Dm5-HT2B in HEK 293T cells, individual cells; ref Gasque et al. (2013); cited from earlier work
D. melanogaster larvae = system: D. melanogaster larvae; parameters: method as in Gasque et al., 2013; details: ref Gasque et al., 2013; cited from earlier work
[4] = biological target: tyramine receptor TyrR (CG7431); parameters: method as in Arakawa et al., 1990; details: ref Arakawa et al., 1990; cited from earlier work
[5] = system: β-adrenergic-like octopamine receptor Octβ3R (CG42244); parameters: method as in Maqueira et al., 2005; details: only 10^-5 M tested; ref Maqueira et al., 2005; cited from earlier work
[6] = system: non-transfected HEK 293 cells; test: Ca2+ fluorimetry (Fluo-4) in non-transfected HEK 293 cells (control); format: cell-based; details: for change in Ca2+-dependent Fluo-4 fluorescence: biogenic amines 1 μM each
Method: as §1

[7] = background of 10^-7 M serotonin, Dm5-HT2B-expressing HEK 293 cells

COc1ccc2[nH]cc(CCN)c2c1 [5-methoxytryptamine]
EC50 (Dm5-HT2B [1]; EC50 (half-maximal activation of Dm5-HT2B), Dm5-HT2B-expressing HEK 293 cells, Fluo-4 fluorescence, concentrations 10^-9 M to 10^-4 M): 1.05 µM and ~1 µM
EC50 (Am5-HT2A): 0.07 µM
EC50 (Am5-HT2B): 0.0604 µM
EC50 (Cv5-HT2A): 0.067 µM

CCCN(CCC)C1CCc2cccc(O)c2C1 (stereo not drawn) [8-OH-DPAT, 8-Hydroxy-2-(di-n-propylamino)tetralin]
EC50 (Dm5-HT2B [1]): ~650 µM
EC50 (Am5-HT2A): 55.9 µM
EC50 (Am5-HT2B): 0.56 µM
EC50 (Cv5-HT2A): 62 µM

CN1CCN(C2=Nc3cc(Cl)ccc3Nc3ccccc32)CC1 [Clozapine, clozapine]
Ca2+-dependent fluorescence blocked to (Am5-HT2B; Am5-HT2B): 5%

CN1CCC(=C2c3ccccc3C=Cc3ccccc32)CC1 [Cyproheptadine, cyproheptadine]
serotonin-induced Ca2+-dependent fluorescence reduced by (Am5-HT2A; Am5-HT2A): 36%
Ca2+-dependent fluorescence blocked to (Am5-HT2B; Am5-HT2B): 23%
receptor activity reduced by (Rp5-HT2B): ≥ 50%

O=C(c1ccc(F)cc1)C1CCN(CCn2c(=O)[nH]c3ccccc3c2=O)CC1 [Ketanserin, ketanserin]
effect on serotonin-stimulated Dm5-HT2B-expressing cells (Dm5-HT2B [2]): did not observe any effect; also recorded: completely lacked inhibitory potential
IC50 (Dm5-HT2B [2]; [7]): no effect
receptor activity reduced by (Rp5-HT2B): ≥ 50%

CC[C@@H](CO)NC(=O)[C@@H]1C=C2c3cccc4c3c(cn4C)C[C@H]2N(C)C1 [Methysergide, methysergide]
effect on serotonin-stimulated Dm5-HT2B-expressing cells (Dm5-HT2B [2]): did not observe any effect; also recorded: completely lacked inhibitory potential
IC50 (Dm5-HT2B [2]; [7]): no effect

CSc1ccc2c(c1)C(N1CCN(C)CC1)Cc1ccccc1S2 (stereo not drawn) [Metitepine, metitepine]
IC50 (Dm5-HT2B [2]; IC50, background of 10^-7 M serotonin, Dm5-HT2B-expressing HEK 293 cells): 3.56e-06 M
IC50 (Dm5-HT2B [2]; Log IC50 ± SD, logarithm of the IC50 (M), background of 10^-7 M serotonin): 3.55e-06 M
Maximal inhibition (Dm5-HT2B [2]): 35%
inhibition range (IC50) (Am5-HT2A; Am5-HT2A): micromolar range
serotonin-induced Ca2+-dependent fluorescence reduced by (Am5-HT2A; Am5-HT2A): 39%
antagonist activity (Am5-HT2B; Am5-HT2B): did not have any activity at all
IC50 (Cv5-HT2A; Cv5-HT2A): 1.2 µM
serotonin-induced Ca2+ signals reduced to % of control measurements (Cv5-HT2A; Cv5-HT2A): 15%
IC50 (Dm5-HT2B [3]): 2 µM
effect on food intake (D. melanogaster larvae): potent anorectic drug

CCN(CC)CCNC(=O)c1cc(Cl)c(N)cc1OC [Metoclopramide, metoclopramide]
IC50 (Dm5-HT2B [2]; background of 10^-7 M serotonin, Dm5-HT2B-expressing HEK 293 cells, read-out: IC50): 1.59e-08 M
IC50 (Dm5-HT2B [2]; logarithm of the IC50 (M), background of 10^-7 M serotonin, read-out: Log IC50 ± SD (converted)): 1.58e-08 M
Maximal inhibition (Dm5-HT2B [2]): 60%
serotonin-evoked Ca2+ response reduced to % of control measurements without antagonist (Dm5-HT2B [2]; residual signal at maximal inhibition): 40%
Ki [4]: 4.6 µM
effect on receptor [5]: block

CN1CCN2c3ccccc3Cc3ccccc3C2C1 (stereo not drawn) [Mianserin, mianserin]
serotonin-induced Ca2+-dependent fluorescence reduced by (Am5-HT2A; Am5-HT2A): 49%
Ca2+-dependent fluorescence blocked to (Am5-HT2B; Am5-HT2B): 24%
receptor activity reduced by (Rp5-HT2B): ≥ 50%

COc1cc2nc(N3CCN(C(=O)c4ccco4)CC3)nc(N)c2cc1OC [Prazosin, prazosin]
effect on serotonin-stimulated Dm5-HT2B-expressing cells (Dm5-HT2B [2]): caused a reduction of the cellular response; also recorded: the responses did not saturate
IC50 (Dm5-HT2B [2]; [7]): no saturation
Maximal inhibition (Dm5-HT2B [2]): 50%

Cc1cc2c(cc1Cl)N(C(=O)Nc1ccc(Oc3cccnc3C)nc1)CC2 [SB 242084]
effect on serotonin-stimulated Dm5-HT2B-expressing cells (Dm5-HT2B [2]): did not observe any effect; also recorded: completely lacked inhibitory potential
IC50 (Dm5-HT2B [2]; [7]): no effect

O=C(CCCN1CCC2(CC1)C(=O)NCN2c1ccccc1)c1ccc(F)cc1 [Spiperone, spiperone]
effect on serotonin-stimulated Dm5-HT2B-expressing cells (Dm5-HT2B [2]): caused a reduction of the cellular response; also recorded: the responses did not saturate
IC50 (Dm5-HT2B [2]; [7]): no saturation
Maximal inhibition (Dm5-HT2B [2]): 25%

NCCc1ccc(O)c(O)c1 [dopamine]
change in Ca2+-dependent Fluo-4 fluorescence (Dm5-HT2B [1]; Dm5-HT2B-expressing cells): Neither dopamine, octopamine nor tyramine evoked responses
change in Ca2+-dependent Fluo-4 fluorescence [6]: Neither dopamine, octopamine nor tyramine evoked responses

NCCc1c[nH]cn1 [histamine]
change in Ca2+-dependent Fluo-4 fluorescence (Dm5-HT2B [1]; Dm5-HT2B-expressing cells): caused a rise in Ca^2+-dependent Fluo-4 fluorescence
change in Ca2+-dependent Fluo-4 fluorescence [6]: caused a rise in Ca^2+-dependent Fluo-4 fluorescence

NCC(O)c1ccc(O)cc1 (stereo not drawn) [octopamine]
change in Ca2+-dependent Fluo-4 fluorescence (Dm5-HT2B [1]; Dm5-HT2B-expressing cells): Neither dopamine, octopamine nor tyramine evoked responses
change in Ca2+-dependent Fluo-4 fluorescence [6]: Neither dopamine, octopamine nor tyramine evoked responses

NCCc1c[nH]c2ccc(O)cc12 [serotonin, 5-hydroxytryptamine]
concentration at which the concentration-response curve saturated (Dm5-HT2B [1]; Dm5-HT2B-expressing cells): 30 µM
change in Ca2+-dependent Fluo-4 fluorescence (Dm5-HT2B [1]; Dm5-HT2B-expressing cells): increase in the fluorescence signal
fluorescence signal at the highest ligand concentration ([6]; 10^-4 M): slight increase in the fluorescence signal
change in Ca2+-dependent Fluo-4 fluorescence [6]: not in non-transfected cells
EC50 (Am5-HT2A): 0.0257 µM
EC50 (Am5-HT2B): 0.0325 µM
EC50 (Cv5-HT2A): 0.024 µM
EC50 (Rp5-HT2B; Rp5-HT2B in CHOK1-aeq cells): 0.201 µM

NCCc1ccc(O)cc1 [tyramine]
change in Ca2+-dependent Fluo-4 fluorescence (Dm5-HT2B [1]; Dm5-HT2B-expressing cells): Neither dopamine, octopamine nor tyramine evoked responses
change in Ca2+-dependent Fluo-4 fluorescence [6]: Neither dopamine, octopamine nor tyramine evoked responses
